Where two headings read alike, the source gives them in different places.
Experiments:
motilin receptor = motilin receptor (Homo sapiens, UniProt O43193); assay: Selectivity for the ghrelin receptor versus the motilin receptor; type: binding
Source text: The level of agonist activity and selectivity for representative compounds of the invention are shown below in Table 4.

[1] = molecular target: T1, human growth hormone secretagogue receptor (hGHS-R1a) (Homo sapiens, UniProt Q92847); assay: Competitive radioligand binding assay (ghrelin receptor), [125I]-ghrelin displacement on GHS-R/HEK 293 membranes
T1 construct: purchased PerkinElmer BioSignal #RBHGHSM, lot#1887; host or cells: HEK-293, stably transfected (membranes)
T1 sequence (Q92847 whole entry): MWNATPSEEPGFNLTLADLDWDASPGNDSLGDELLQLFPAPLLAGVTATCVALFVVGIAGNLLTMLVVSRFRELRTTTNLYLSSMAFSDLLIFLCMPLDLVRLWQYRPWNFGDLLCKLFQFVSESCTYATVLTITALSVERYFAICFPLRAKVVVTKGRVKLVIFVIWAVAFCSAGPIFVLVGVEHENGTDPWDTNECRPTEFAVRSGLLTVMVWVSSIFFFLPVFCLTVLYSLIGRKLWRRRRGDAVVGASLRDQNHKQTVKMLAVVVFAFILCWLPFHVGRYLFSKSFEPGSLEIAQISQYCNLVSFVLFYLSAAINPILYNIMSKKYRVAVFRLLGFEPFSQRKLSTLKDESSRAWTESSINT

[2] = molecular target: human ghrelin receptor (hGHS-R1a) (Homo sapiens, UniProt Q92847); assay: Aequorin functional assay (ghrelin receptor), CHO-K1 cells co-expressing Gα16 and aequorin; type: cell-based; conditions: functional (agonist) activity, standard method; TFA salts unless otherwise noted
human ghrelin receptor (hGHS-R1a), sequence (Q92847 whole entry): as above
Source text: Coelenterazine (Molecular Probes, Leiden, The Netherlands). […] Compound Handling
• 1. […] Key Aspects of Method • 1. […] Results

[3] = binding activity at the human ghrelin receptor, [125I]-ghrelin competition, GHS-R/HEK 293 membranes, read-out: Ki
[4] = binding activity, standard method, TFA salts unless otherwise noted, read-out: Ki
[5] = [125I]-ghrelin competition, GHS-R/HEK 293 membranes, Table 3A, read-out: Binding Activity at the Human Ghrelin Receptor

motilin receptor, sequence (O43193 whole entry): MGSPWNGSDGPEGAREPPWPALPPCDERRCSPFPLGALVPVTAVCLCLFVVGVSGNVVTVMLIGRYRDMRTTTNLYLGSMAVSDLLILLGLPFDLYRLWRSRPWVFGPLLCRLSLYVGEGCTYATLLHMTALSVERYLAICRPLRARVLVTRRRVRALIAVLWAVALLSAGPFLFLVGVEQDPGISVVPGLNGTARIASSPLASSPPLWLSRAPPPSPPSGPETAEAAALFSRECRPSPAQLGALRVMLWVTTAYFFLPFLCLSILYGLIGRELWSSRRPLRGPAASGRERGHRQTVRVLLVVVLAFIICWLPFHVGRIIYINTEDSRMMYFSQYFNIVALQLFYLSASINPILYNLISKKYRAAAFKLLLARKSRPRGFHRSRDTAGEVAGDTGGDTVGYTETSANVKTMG

| Selectivity (motilin receptor) | Ki [1, 3] | EC50 [2] | Ki [1, 4] | SMILES | also measured |
| --- | --- | --- | --- | --- | --- |
| >3300/1 |  |  |  | CCC(C)C1NCCOc2ccccc2C=CCNC(=O)C(Cc2ccccc2)NC(=O)C(C)N(C)C1=O (centres unmarked) [compound 40] |  |
| 1700/1 |  |  |  | CC1COc2ccccc2CCCNC(=O)C(Cc2ccc(F)cc2)NC(=O)C(C)N(C)C(=O)C(C2CC2)N1 (centres unmarked) [compound 394] |  |
| 100/1 |  |  |  | CCC(C)C1NCCOc2ccc(C(=O)O)cc2CCCNC(=O)C(Cc2ccccc2)NC(=O)C(C)N(C)C1=O (centres unmarked) [compound 197] |  |
|  |  | 1 to 100 nM | 10 to 100 nM | CC1(C)NC(=O)C2(CCCC2)NCCOc2ccccc2C=CCNC(=O)[C@H](Cc2cccc(Cl)c2)NC1=O (stereo in doubt) [compound 334] | Ki ([1]; Table 3C (compounds 18, 334-397), human ghrelin receptor, read-out: Ki): 10 to 100 nM |
|  | 100 to 1000 nM | 100 to 1000 nM | 10 to 100 nM | CC(C)CC1NCCOc2ccccc2CCCNC(=O)C(Cc2ccccc2)NC(=O)C2(CCCC2)NC1=O (centres unmarked) [compound 113] |  |
|  | 100 to 1000 nM | 100 to 1000 nM | 10 to 100 nM | CC(C)C[C@@H]1NCCOc2ccccc2CCCNC(=O)[C@H](Cc2ccccc2)NC(=O)C2(CC2)NC1=O [compound 111] |  |
| 400/1 |  |  |  | CCC(C)C1NCCOc2ccccc2C2CC2CNC(=O)C(Cc2cccc(Cl)c2)NC(=O)C2(CCCC2)NC1=O (centres unmarked) [compound 388] |  |
|  | 10 to 100 nM | 1 to 100 nM | 10 to 100 nM | CC(C)C[C@@H]1NCCOc2ccccc2C=CCNC(=O)[C@H](Cc2ccc(Cl)cc2)NC(=O)C2(CCCC2)NC1=O (stereo in doubt) [compound 153] |  |
|  |  | 1 to 100 nM | 0.1 to 10 nM | CC1C(=O)NC(Cc2ccc(C(F)(F)F)cc2)C(=O)NCCCc2ccccc2OCCNC(C2CC2)C(=O)N1C (centres unmarked) [compound 322] | Ki ([1]; binding activity at the human ghrelin receptor, [125I]-ghrelin displacement, read-out: Ki): 0.1 to 10 nM |
| 3400/1 |  |  |  | CCCC1NCCOc2ccccc2C=CCNC(=O)C(Cc2ccccc2)NC(=O)C(C)N(C)C1=O (centres unmarked) [compound 39] |  |
|  | 10 to 100 nM | 1 to 100 nM | 10 to 100 nM | CC(C)C[C@@H]1NCCOc2ccccc2C=CCNC(=O)[C@H](Cc2ccccc2)NC(=O)C2(CCCC2)NC1=O (stereo in doubt) [Compound 8] |  |
| 105/1 |  |  |  | CCC(C)C1NCCOc2ccccc2CCCNC(=O)C(CC(C)C)NC(=O)C(C)N(C)C1=O (centres unmarked) [compound 176] |  |
|  | 0.1 to 10 nM | 1 to 100 nM | 0.1 to 10 nM | CC[C@H](C)[C@@H]1NCCOc2ccccc2CCCNC(=O)[C@@H](Cc2cccc3ccccc23)NC(=O)[C@@H](C)N(C)C1=O [compound 30] |  |
|  | 100 to 1000 nM | 100 to 1000 nM | 100 to 1000 nM | CC(C)[C@@H]1NCCOc2ccccc2CCCNC(=O)[C@@H](Cc2ccccc2)NC(=O)CN(C)C1=O [Compound 3] |  |
|  | 100 to 1000 nM | 100 to 1000 nM | 100 to 1000 nM | CC[C@H](C)[C@@H]1NCCOc2ccccc2CCCNC(=O)[C@@H](Cc2ccccc2)NC(=O)[C@@H](C)NC1=O [compound 2] |  |
|  |  | > 1000 nM | 100 to 1000 nM | CC(C)C[C@@H]1NCCOc2ccccc2/C=C/CNC(=O)C2(CCCC2)NC(=O)C2(CCCC2)NC1=O [compound 168] | Ki [1, 5]: 100 to 1000 nM |
|  |  | 100 to 1000 nM | 100 to 1000 nM | CCC(C)C1NCc2ccccc2CCCCNC(=O)C(Cc2ccccc2)NC(=O)C(C)N(C)C1=O (single isomer, unassigned) [194a] | Ki [1, 5]: 100 to 1000 nM |
|  |  | > 1000 nM | 10 to 100 nM | C[C@@H]1C(=O)N[C@H](Cc2ccccc2)C(=O)NCCCc2ccccc2OCCN2CCCC[C@H]2C(=O)N1C [compound 226] |  |
|  | 0.1 to 10 nM | 1 to 100 nM | 0.1 to 10 nM | CC[C@H](C)[C@@H]1NCCOc2ccccc2CCCNC(=O)[C@@H](Cc2ccccc2Cl)NC(=O)[C@@H](C)N(C)C1=O [compound 23] |  |

| SMILES | Selectivity (motilin receptor) | Ki [1, 3] | EC50 [2] | Ki [1, 4] | also measured |
| --- | --- | --- | --- | --- | --- |
| CCC[C@@H]1NCCOc2ccccc2CCCNC(=O)[C@@H](Cc2ccccc2)NC(=O)CN(CC)C1=O [compound 5] |  | 100 to 1000 nM | 100 to 1000 nM |  |  |
| CCC(C)C1NCCOc2ccccc2CCCNC(=O)C(Cc2ccc(O)cc2)NC(=O)C(C)N(C)C1=O (centres unmarked) [compound 445] |  |  | 1 to 100 nM | 10 to 100 nM | Ki ([1]; second table titled 3C (compounds 435-449), human ghrelin receptor, read-out: Ki): 10 to 100 nM |
| CCCC1NCCOc2ccccc2CCCNC(=O)C(Cc2ccc(O)cc2)NC(=O)CN(C)C1=O (centres unmarked) [compound 7] | >100/1 |  |  |  |  |
